What was measured:
Assay in all cases: KINOMEscan kinase binding assay (Eurofins/DiscoveRx), % Ctrl
Conditions in all cases: 1 μM
kinases [1] = target: T1, kinases (Homo sapiens, UniProt P00519, Y253F)
T1 construct: purchased Eurofins/DiscoveRx; host or cells: E. coli BL21-derived host (T7 phage display) for most kinases; HEK-293 for the rest
Method in brief: (§1)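 Competition binding: DNA- or phage-tagged kinases (T7 phage in E. coli BL21, or HEK-293-expressed) with immobilized biotinylated ligand beads and test compound, 1 h at room temperature. Bead-bound kinase eluted and quantified by qPCR; % Ctrl = (compound − positive control)/(negative control − positive control) ×100 at a single compound concentration.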

kinases [2] = target: T2, kinases (Homo sapiens, UniProt P00533, G719C)
T2 construct: purchased Eurofins/DiscoveRx; host or cells: E. coli BL21-derived host (T7 phage display) for most kinases; HEK-293 for the rest
Method in brief: as §1

kinases [3] = target: T3, kinases (Homo sapiens, UniProt P07949, V804L)
T3 construct: purchased Eurofins/DiscoveRx; host or cells: E. coli BL21-derived host (T7 phage display) for most kinases; HEK-293 for the rest
Method in brief: as §1

kinases [4] = target: T4, kinases (Homo sapiens, UniProt P00519, M351T)
T4 construct: purchased Eurofins/DiscoveRx; host or cells: E. coli BL21-derived host (T7 phage display) for most kinases; HEK-293 for the rest
Method in brief: as §1

kinases [5] = target: T5, kinases (Homo sapiens, UniProt P00519, H396P)
T5 construct: purchased Eurofins/DiscoveRx; host or cells: E. coli BL21-derived host (T7 phage display) for most kinases; HEK-293 for the rest
Method in brief: as §1

kinases [6] = target: T6, kinases (Homo sapiens, UniProt P00533, T790M)
T6 construct: purchased Eurofins/DiscoveRx; host or cells: E. coli BL21-derived host (T7 phage display) for most kinases; HEK-293 for the rest
Method in brief: as §1

kinases [7] = target: T7, kinases (Homo sapiens, UniProt P10721, L576P)
T7 construct: purchased Eurofins/DiscoveRx; host or cells: E. coli BL21-derived host (T7 phage display) for most kinases; HEK-293 for the rest
Method in brief: as §1

kinases [8] = target: T8, kinases (Homo sapiens, UniProt P10721, V559D/V654A)
T8 construct: purchased Eurofins/DiscoveRx; host or cells: E. coli BL21-derived host (T7 phage display) for most kinases; HEK-293 for the rest
Method in brief: as §1

kinases [9] = target: T9, kinases (Homo sapiens, UniProt P09619)
T9 construct: purchased Eurofins/DiscoveRx; host or cells: E. coli BL21-derived host (T7 phage display) for most kinases; HEK-293 for the rest
Method in brief: as §1

kinases [10] = target: T10, kinases (Homo sapiens, UniProt P07949, M918T)
T10 construct: purchased Eurofins/DiscoveRx; host or cells: E. coli BL21-derived host (T7 phage display) for most kinases; HEK-293 for the rest
Method in brief: as §1

kinases [11] = target: T11, kinases (Homo sapiens, UniProt P36888)
T11 construct: purchased Eurofins/DiscoveRx; host or cells: E. coli BL21-derived host (T7 phage display) for most kinases; HEK-293 for the rest
T11 sequence (P36888 27-993): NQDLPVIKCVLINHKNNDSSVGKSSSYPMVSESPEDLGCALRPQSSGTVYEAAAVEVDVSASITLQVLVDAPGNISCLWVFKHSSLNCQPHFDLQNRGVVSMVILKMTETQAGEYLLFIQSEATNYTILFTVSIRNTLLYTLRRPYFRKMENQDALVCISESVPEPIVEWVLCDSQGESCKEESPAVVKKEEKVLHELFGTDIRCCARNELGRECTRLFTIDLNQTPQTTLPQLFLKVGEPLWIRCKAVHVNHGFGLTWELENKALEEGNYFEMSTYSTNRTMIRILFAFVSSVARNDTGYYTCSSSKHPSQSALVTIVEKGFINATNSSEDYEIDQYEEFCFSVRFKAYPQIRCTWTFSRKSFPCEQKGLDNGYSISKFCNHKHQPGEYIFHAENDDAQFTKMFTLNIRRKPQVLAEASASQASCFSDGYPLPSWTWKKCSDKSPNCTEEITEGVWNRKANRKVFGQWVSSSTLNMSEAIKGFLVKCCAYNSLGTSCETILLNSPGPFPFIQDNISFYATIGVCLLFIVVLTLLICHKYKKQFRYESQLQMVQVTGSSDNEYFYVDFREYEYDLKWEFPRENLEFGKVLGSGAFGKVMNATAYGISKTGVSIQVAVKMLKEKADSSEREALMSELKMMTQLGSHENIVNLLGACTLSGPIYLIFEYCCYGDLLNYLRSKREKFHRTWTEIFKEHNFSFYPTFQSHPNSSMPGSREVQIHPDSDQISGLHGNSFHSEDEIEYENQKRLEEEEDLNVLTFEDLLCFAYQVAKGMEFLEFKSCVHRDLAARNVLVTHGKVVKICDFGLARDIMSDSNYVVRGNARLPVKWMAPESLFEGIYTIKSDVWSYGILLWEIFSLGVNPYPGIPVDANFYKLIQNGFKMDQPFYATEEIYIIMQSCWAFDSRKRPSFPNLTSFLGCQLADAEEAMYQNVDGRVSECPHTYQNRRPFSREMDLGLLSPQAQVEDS
Method in brief: as §1

kinases [12] = target: T12, kinases (Homo sapiens, UniProt P00519)
T12 construct: purchased Eurofins/DiscoveRx; host or cells: E. coli BL21-derived host (T7 phage display) for most kinases; HEK-293 for the rest
Method in brief: as §1

kinases [13] = target: T13, kinases (Homo sapiens, UniProt P07949)
T13 construct: purchased Eurofins/DiscoveRx; host or cells: E. coli BL21-derived host (T7 phage display) for most kinases; HEK-293 for the rest
Method in brief: as §1

kinases [14] = target: T14, kinases (Homo sapiens, UniProt P00533, DEL752-759)
T14 construct: purchased Eurofins/DiscoveRx; host or cells: E. coli BL21-derived host (T7 phage display) for most kinases; HEK-293 for the rest
Method in brief: as §1

T9 sequence (P09619 33-1106): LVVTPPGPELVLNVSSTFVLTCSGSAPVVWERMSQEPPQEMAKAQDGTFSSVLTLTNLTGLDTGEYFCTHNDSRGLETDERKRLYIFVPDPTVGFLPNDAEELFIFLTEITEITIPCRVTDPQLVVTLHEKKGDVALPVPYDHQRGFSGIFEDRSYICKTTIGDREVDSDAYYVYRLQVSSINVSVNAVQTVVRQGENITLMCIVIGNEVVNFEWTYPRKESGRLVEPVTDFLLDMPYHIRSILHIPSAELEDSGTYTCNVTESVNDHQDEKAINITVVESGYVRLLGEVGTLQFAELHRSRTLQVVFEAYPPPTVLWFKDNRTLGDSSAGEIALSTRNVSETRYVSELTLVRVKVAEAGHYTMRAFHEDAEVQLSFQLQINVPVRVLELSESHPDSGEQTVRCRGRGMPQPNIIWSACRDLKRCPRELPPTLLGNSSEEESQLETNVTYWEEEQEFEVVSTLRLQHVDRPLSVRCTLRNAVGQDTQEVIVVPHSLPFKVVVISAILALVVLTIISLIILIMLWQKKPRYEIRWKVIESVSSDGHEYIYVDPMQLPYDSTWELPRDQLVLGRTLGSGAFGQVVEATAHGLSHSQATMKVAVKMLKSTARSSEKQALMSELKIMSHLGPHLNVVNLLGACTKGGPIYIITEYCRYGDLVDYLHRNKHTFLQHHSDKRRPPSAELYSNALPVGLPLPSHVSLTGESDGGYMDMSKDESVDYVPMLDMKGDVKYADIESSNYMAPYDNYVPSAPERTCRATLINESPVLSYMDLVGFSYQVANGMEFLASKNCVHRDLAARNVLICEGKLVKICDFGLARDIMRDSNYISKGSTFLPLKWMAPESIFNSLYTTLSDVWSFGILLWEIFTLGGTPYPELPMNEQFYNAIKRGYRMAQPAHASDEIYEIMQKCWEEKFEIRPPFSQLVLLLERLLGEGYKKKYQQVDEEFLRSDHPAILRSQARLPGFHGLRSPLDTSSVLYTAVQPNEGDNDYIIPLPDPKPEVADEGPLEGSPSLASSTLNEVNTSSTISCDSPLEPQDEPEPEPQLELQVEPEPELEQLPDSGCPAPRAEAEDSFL
T8 sequence (P10721 26-976 V559D/V654A): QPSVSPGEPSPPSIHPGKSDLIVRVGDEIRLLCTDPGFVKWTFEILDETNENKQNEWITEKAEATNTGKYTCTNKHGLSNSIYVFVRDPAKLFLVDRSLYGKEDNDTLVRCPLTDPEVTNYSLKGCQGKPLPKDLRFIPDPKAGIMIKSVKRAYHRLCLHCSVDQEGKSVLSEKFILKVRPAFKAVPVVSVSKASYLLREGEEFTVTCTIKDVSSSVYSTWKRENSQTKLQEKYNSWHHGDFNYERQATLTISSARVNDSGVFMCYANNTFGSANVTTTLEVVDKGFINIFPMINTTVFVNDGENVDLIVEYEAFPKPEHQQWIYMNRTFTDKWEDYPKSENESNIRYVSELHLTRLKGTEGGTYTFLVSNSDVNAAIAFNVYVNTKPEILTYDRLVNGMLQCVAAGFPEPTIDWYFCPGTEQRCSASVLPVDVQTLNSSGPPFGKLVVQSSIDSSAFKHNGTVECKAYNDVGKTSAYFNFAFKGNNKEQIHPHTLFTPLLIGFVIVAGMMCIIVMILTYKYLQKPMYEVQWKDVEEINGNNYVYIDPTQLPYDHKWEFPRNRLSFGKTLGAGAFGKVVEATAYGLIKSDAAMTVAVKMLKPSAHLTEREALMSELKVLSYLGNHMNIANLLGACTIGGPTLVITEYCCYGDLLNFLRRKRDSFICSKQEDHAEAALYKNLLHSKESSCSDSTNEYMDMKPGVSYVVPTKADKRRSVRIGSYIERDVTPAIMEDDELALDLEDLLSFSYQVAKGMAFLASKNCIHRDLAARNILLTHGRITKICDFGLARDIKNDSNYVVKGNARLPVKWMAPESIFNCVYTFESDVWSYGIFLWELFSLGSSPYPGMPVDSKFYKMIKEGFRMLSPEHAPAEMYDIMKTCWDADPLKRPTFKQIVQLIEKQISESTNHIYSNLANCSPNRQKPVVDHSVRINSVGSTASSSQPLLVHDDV
T7 sequence (P10721 26-976 L576P): as the sequence (P10721 26-976 V559D/V654A) above, with D534V, L551P, A629V counted along it
T3 sequence (P07949 29-1114 V804L): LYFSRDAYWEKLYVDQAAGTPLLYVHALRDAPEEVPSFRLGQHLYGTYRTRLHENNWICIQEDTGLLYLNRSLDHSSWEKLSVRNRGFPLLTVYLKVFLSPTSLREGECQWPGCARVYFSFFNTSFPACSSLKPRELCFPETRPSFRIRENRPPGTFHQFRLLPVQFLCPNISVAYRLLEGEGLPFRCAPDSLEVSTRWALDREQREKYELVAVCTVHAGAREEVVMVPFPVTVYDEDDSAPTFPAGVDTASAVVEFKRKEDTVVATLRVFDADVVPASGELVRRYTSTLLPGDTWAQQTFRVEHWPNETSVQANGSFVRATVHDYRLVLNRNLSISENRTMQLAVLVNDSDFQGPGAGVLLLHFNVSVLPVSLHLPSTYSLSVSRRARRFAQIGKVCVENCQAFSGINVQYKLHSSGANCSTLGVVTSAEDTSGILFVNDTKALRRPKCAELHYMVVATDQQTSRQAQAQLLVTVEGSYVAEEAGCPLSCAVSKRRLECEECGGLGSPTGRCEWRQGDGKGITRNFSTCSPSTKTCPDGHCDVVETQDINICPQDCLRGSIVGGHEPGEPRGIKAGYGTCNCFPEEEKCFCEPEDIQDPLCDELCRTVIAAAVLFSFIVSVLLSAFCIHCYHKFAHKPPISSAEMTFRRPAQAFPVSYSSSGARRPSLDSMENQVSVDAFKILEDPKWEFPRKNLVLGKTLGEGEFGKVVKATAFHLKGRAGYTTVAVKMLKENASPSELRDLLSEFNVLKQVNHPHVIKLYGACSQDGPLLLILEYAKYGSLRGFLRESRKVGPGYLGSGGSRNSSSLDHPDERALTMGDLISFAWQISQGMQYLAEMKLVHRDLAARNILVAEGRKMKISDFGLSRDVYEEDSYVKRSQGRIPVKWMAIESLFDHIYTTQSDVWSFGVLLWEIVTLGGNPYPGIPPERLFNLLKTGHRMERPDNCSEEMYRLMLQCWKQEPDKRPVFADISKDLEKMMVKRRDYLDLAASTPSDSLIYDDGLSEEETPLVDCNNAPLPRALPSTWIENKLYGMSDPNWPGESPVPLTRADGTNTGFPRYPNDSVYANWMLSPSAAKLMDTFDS
T10 sequence (P07949 29-1114 M918T): as the sequence (P07949 29-1114 V804L) above, with L776V, M890T counted along it
T13 sequence (P07949 29-1114): as the sequence (P07949 29-1114 V804L) above, with L776V counted along it

Structure (SMILES)	% Ctrl, ABL1(Y253F)-phosphorylated (kinases [1]; ABL1(Y253F)-phosphorylated)	% Ctrl, EGFR(G719C) (kinases [2]; EGFR(G719C))	% Ctrl, RET(V804L) (kinases [3]; RET(V804L))	% Ctrl, ABL1(M351T)-phosphorylated (kinases [4]; ABL1(M351T)-phosphorylated)	% Ctrl, ABL1(H396P)-nonphosphorylated (kinases [5]; ABL1(H396P)-nonphosphorylated)	% Ctrl, ABL1(H396P)-phosphorylated (kinases [5]; ABL1(H396P)-phosphorylated)	% Ctrl, EGFR(T790M) (kinases [6]; EGFR(T790M))	% Ctrl, KIT(L576P) (kinases [7]; KIT(L576P))	% Ctrl, KIT(V559D, V654A) (kinases [8]; KIT(V559D, V654A))	% Ctrl, PDGFRB (kinases [9]; PDGFRB)	% Ctrl, RET(M918T) (kinases [10]; RET(M918T))	% Ctrl, FLT3 (kinases [11]; FLT3)	% Ctrl, FLT3-autoinhibited (kinases [11]; FLT3-autoinhibited)	% Ctrl, ABL1-nonphosphorylated (kinases [12]; ABL1-nonphosphorylated)	% Ctrl, ABL1-phosphorylated (kinases [12]; ABL1-phosphorylated)	% Ctrl, RET (kinases [13]; RET)	% Ctrl, EGFR(S752-I759del) (kinases [14]; EGFR(S752-I759del))	other results
Cc1cc2c([nH]1)/C=C1\C(=O)Nc3ccc(cc31)-c1cnn(C)c1CNCCN(C)C2=O [Ex. 125, [3a(4)Z]-6,9,14-trimethyl-9,10,11,12,13,14-hexahydro-1,17-(ethanediylidene)pyrazolo[4,3-m]dipyrrolo[3,2-f:3′,4′-i][1,4]diazacyclopentadecine-3,8(2H,5H)-dione]	0 % Ctrl	8 % Ctrl	0 % Ctrl	0.1 % Ctrl	0 % Ctrl	0.1 % Ctrl	11 % Ctrl	5.9 % Ctrl	6.7 % Ctrl	0.4 % Ctrl	0 % Ctrl	0.45 % Ctrl	0.15 % Ctrl	0 % Ctrl	0 % Ctrl	0 % Ctrl	73 % Ctrl	–
Cc1cc2c([nH]1)/C=C1\C(=O)Nc3ccc(cc31)-c1ccnn1CCOCCNC2=O [Ex.39, [19a(20)Z]-2-methyl-6,7,9,10-tetrahydro-1H-15,17-(ethanediylidene)pyrazolo[1,5-d]dipyrrolo[3,4-h:2′,3′-k][1,4,14]oxadiazacyclohexadecine-4,19(5H,18H)-dione]	98 % Ctrl	70 % Ctrl	87 % Ctrl	58 % Ctrl	74 % Ctrl	82 % Ctrl	99 % Ctrl	100 % Ctrl	91 % Ctrl	91 % Ctrl	97 % Ctrl	100 % Ctrl	85 % Ctrl	73 % Ctrl	78 % Ctrl	85 % Ctrl	80 % Ctrl	–
Cc1cc2c([nH]1)/C=C1\C(=O)Nc3ccc(nc31)-c1ccccc1OCCCNC2=O [Ex.22, [3a(4)Z]-6-methyl-9,10,11,12-tetrahydro-1,18-(ethanediylidene)dipyrrolo[3,2-g:3′,4′-j][1,5,12]benzoxadiazacyclopentadecine-3,8(2H,5H)-dione]	68 % Ctrl	93 % Ctrl	98 % Ctrl	100 % Ctrl	90 % Ctrl	77 % Ctrl	57 % Ctrl	84 % Ctrl	100 % Ctrl	100 % Ctrl	92 % Ctrl	81 % Ctrl	100 % Ctrl	71 % Ctrl	69 % Ctrl	81 % Ctrl	72 % Ctrl	–
Cc1cc2c([nH]1)/C=C1\C(=O)Nc3ccc(cc31)O[C@@H](C)COCCN(C)C2=O [Ex. 92, [10S,16a(17)Z]-2,5,10-trimethyl-6,7,9,10-tetrahydro-1H-12,14-(ethanediylidene)dipyrrolo[3,2-i:3′,4′-l][1,4,7]dioxazacyclopentadecine-4,16(5H,15H)-dione]	54 % Ctrl	100 % Ctrl	43 % Ctrl	54 % Ctrl	0.3 % Ctrl	46 % Ctrl	100 % Ctrl	87 % Ctrl	67 % Ctrl	71 % Ctrl	59 % Ctrl	77 % Ctrl	96 % Ctrl	0 % Ctrl	25 % Ctrl	63 % Ctrl	90 % Ctrl	–
Cc1nn(C)c2c1-c1ccc3c(c1)/C(=C/c1[nH]ccc1C(=O)N(C)CCCO2)C(=O)N3 [Ex. 150, [3a(4)Z]-9,14,16-trimethyl-10,11,13,14-tetrahydro-2H-1,17-(ethanediylidene)pyrazolo[4,3-m]dipyrrolo[3,2-f:3′,4′-i][1,4]oxazacyclopentadecine-3,8(5H,9H)-dione]	–	–	–	–	–	–	–	–	–	–	–	–	–	–	–	–	–	% Ctrl, ABL1(Y253F)-phosphorylated (kinases [1]; target ABL1(Y253F)-phosphorylated): 100 % Ctrl; % Ctrl, EGFR(G719C) (kinases [2]; target EGFR(G719C)): 92 % Ctrl; % Ctrl, RET(V804L) (kinases [3]; target RET(V804L)): 77 % Ctrl; % Ctrl, ABL1(M351T)-phosphorylated (kinases [4]; target ABL1(M351T)-phosphorylated): 94 % Ctrl; % Ctrl, ABL1(H396P)-nonphosphorylated (kinases [5]; target ABL1(H396P)-nonphosphorylated): 100 % Ctrl; % Ctrl, ABL1(H396P)-phosphorylated (kinases [5]; target ABL1(H396P)-phosphorylated): 100 % Ctrl; % Ctrl, EGFR(T790M) (kinases [6]; target EGFR(T790M)): 86 % Ctrl; % Ctrl, KIT(L576P) (kinases [7]; target KIT(L576P)): 94 % Ctrl; % Ctrl, KIT(V559D, V654A) (kinases [8]; target KIT(V559D, V654A)): 100 % Ctrl; % Ctrl, PDGFRB (kinases [9]; target PDGFRB): 96 % Ctrl; % Ctrl, RET(M918T) (kinases [10]; target RET(M918T)): 90 % Ctrl; % Ctrl, FLT3-autoinhibited (kinases [11]; target FLT3-autoinhibited): 82 % Ctrl; % Ctrl, FLT3 (kinases [11]; target FLT3): 71 % Ctrl; % Ctrl, ABL1-nonphosphorylated (kinases [12]; target ABL1-nonphosphorylated): 82 % Ctrl; % Ctrl, ABL1-phosphorylated (kinases [12]; target ABL1-phosphorylated): 82 % Ctrl; % Ctrl, RET (kinases [13]; target RET): 93 % Ctrl; % Ctrl, EGFR(S752-I759del) (kinases [14]; target EGFR(S752-I759del)): 100 % Ctrl
